Counter-ions that a name gives are not always drawn.
Target: T1, glycine transporter-1 (GlyT-1) (Homo sapiens, UniProt P48067)
T1 construct: JAR cells (ATCC#HTB-144), which endogenously express GlyT-1; host or cells: JAR human choriocarcinoma cells
T1 sequence (P48067 1-706): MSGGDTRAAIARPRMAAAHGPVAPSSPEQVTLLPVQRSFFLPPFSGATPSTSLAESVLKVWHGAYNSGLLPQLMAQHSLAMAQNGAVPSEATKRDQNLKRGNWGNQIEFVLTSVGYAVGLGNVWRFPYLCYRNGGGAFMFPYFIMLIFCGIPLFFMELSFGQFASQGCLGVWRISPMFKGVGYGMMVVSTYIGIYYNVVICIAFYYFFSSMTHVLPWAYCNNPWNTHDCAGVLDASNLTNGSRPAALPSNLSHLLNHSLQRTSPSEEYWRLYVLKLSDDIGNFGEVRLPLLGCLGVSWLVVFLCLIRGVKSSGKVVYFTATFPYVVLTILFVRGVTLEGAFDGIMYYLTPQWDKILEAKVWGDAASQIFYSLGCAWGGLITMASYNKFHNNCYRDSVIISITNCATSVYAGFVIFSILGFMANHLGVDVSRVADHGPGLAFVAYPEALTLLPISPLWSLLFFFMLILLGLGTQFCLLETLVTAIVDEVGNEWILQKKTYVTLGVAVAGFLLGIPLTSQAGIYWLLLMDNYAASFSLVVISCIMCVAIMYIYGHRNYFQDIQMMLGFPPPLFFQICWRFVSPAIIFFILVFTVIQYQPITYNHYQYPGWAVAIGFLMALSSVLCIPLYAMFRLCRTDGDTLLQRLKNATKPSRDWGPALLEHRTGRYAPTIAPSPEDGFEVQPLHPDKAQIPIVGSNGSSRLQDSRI
Experiment: [14C]glycine uptake assay in JAR cells endogenously expressing GlyT-1 (scintillation proximity)
Type: cell-based
Details: JAR cells, [14C]glycine 5 μM, 3 hour incubation; read-out: GlyT-1 IC50
Procedure: The inhibitory activity of compounds of the invention against the glycine transporter-1 (GlyT-1) can be determined by the following scintillation proximity assay. The potency of each compound was assessed in inhibiting the uptake of radiolabeled glycine ([^14C]glycine) using the human choriocarcinoma cell line, JAR cells (ATCC#HTB-144), which endogenously express GlyT-1. In brief, 50,000 JARS cells were plated per well of tissue culture treated 96-well Cytostar-T plate (PerkinElmer) in RPMI media supplemented with 10% heat inactivated FBS and allowed to attach overnight at 37° C. and 5% CO2. Compounds were serially diluted 3-fold in DMSO generating a nine (9) data point response curve for each compound. Two replicates were performed per determination. The compounds were then diluted into Uptake Buffer (10 mM Hepes, 120 mM NaCl, 2 mM KCl, 1 mM CaCl2 and 1 mM MgCl2, 5 mM Alanine, pH 7.4) with a final DMSO concentration of 0.75% (v/v). Following the overnight incubation, the media was replaced with Uptake Buffer in the presence or absence of diluted compound and pre-incubated at room temperature for 10 minutes prior to the addition of [^14C]glycine at a final concentration of 5 μM. Following a 3 hour incubation period at 37° C. and 5% CO2, the plates were sealed and placed at room temperature in the dark for 15 minutes prior to quantification of incorporated radioactivity using a MicroBeta Trilux scintillation plate reader (PerkinElmer). Data were fit into a four-parameter model to determine the inhibitor concentration at half-maximal response (IC50). The assay window was established by control wells incubated with [^14C]glycine in the presence or absence of 10 mM non-labeled glycine. A dose response curve for a synthesized reference standard was generated on every plate as a positive control.

Row | IC50 [nM] | Compound
1 | 86 | CCS(=O)(=O)N1CCN(C2(CNC(=O)c3ccc(C(F)(F)F)cc3C(F)(F)F)CCC(F)(F)CC2)C(C)C1 (racemic) [compound 218, (±)-N-((1-(4-(Ethylsulfonyl)-2-methylpiperazin-1-yl)-4,4-difluorocyclohexyl)methyl)-2,4-bis(trifluoromethyl) benzamide Hydrochloride]
2 | 68 | CC(O)CS(=O)(=O)N1CCN(C2(CNC(=O)c3ccc(C(F)(F)F)cc3Cl)CCC(F)(F)CC2)CC1 (single isomer, unassigned; enantiomer b) [compound 279, (Enantiomer B)-2-Chloro-N-((4,4-difluoro-1-(4-(2-hydroxypropylsulfonyl)piperazin-1-yl)cyclohexyl)methyl)-4-(trifluoromethyl) benzamide Hydrochloride]
3 | 541 | CCCS(=O)(=O)N1CCN(C2(CNC(=O)c3c(C)cccc3OC)CCCCC2)CC1 [compound 3, 2-Methoxy-6-methyl-N-((1-(4-(propylsulfonyl)piperazin-1-yl)cyclohexyl)methyl) benzamide Hydrochloride]
4 | 28 | CCCS(=O)(=O)N1CCN(C2(CNC(=O)c3ccc(F)cc3C)CCCCC2)CC1 [compound 10, 4-Fluoro-2-methyl-N-((1-(4-(propylsulfonyl)piperazin-1-yl)cyclohexyl)methyl) benzamide Hydrochloride]
5 | 23 | CCCS(=O)(=O)N1CCN(C2(CNC(=O)c3c(F)cccc3F)CCCCC2)CC1 [compound 16, 2,6-Difluoro-N-((1-(4-(propylsulfonyl)piperazin-1-yl)cyclohexyl)methyl) benzamide Hydrochloride]
6 | 245 | CCCS(=O)(=O)N1CCN(C2(CNC(=O)c3ccc(Cl)c(Cl)c3)CCCCC2)CC1 [compound 26, 3,4-Dichloro-N-((1-(4-(propylsulfonyl)piperazin-1-yl)cyclohexyl)methyl) benzamide Hydrochloride]
7 | 590 | CCCS(=O)(=O)N1CCN(C2(CNC(=O)c3ccc(C)c(Cl)c3)CCCCC2)CC1 [compound 31, 3-Chloro-4-methyl-N-((1-(4-(propylsulfonyl)piperazin-1-yl)cyclohexyl)methyl) benzamide Hydrochloride]
8 | 488 | CCCS(=O)(=O)N1CCN(C2(CNC(=O)c3ccc(C(C)C)cc3)CCCCC2)CC1 [compound 33, 4-Isopropyl-N-((1-(4-(propylsulfonyl)piperazin-1-yl)cyclohexyl)methyl) benzamide Hydrochloride]
9 | 646 | CCCS(=O)(=O)N1CCN(C2(CNC(=O)c3ccccc3-c3ccccc3)CCCCC2)CC1 [compound 34, N-((1-(4-(Propylsulfonyl)piperazin-1-yl)cyclohexyl)methyl) biphenyl-2-carboxamide Hydrochloride]
10 | 1070 | CCCS(=O)(=O)N1CCN(C2(CNC(=O)c3ccc(C)c(C)c3)CCCCC2)CC1 [compound 35, 3,4-Dimethyl-N-((1-(4-(propylsulfonyl)piperazin-1-yl)cyclohexyl)methyl) benzamide Hydrochloride]
11 | 1140 | CCCS(=O)(=O)N1CCN(C2(CNC(=O)c3cccc(C)c3)CCCCC2)CC1 [compound 37, 3-Methyl-N-((1-(4-(propylsulfonyl)piperazin-1-yl)cyclohexyl)methyl) benzamide Hydrochloride]
12 | 629 | CCCS(=O)(=O)N1CCN(C2(CNC(=O)c3ccccc3OC)CCCCC2)CC1 [compound 40, 2-Methoxy-N-((1-(4-(propylsulfonyl)piperazin-1-yl)cyclohexyl)methyl) benzamide Hydrochloride]
13 | 12 | CCCS(=O)(=O)N1CCN(C2(CNC(=O)c3c(Cl)cccc3Cl)CCCCC2)CC1 [compound 43, 2,6-Dichloro-N-((1-(4-(propylsulfonyl)piperazin-1-yl)cyclohexyl)methyl) benzamide Hydrochloride]
14 | 887 | CCCS(=O)(=O)N1CCN(C2(CNC(=O)c3ccc(C)cc3)CCCCCC2)CC1 [compound 57, 4-Methyl-N-((1-(4-(propylsulfonyl)piperazin-1-yl)cycloheptyl)methyl) benzamide Hydrochloride]
15 | 863 | CCCS(=O)(=O)N1CCN(C2(CNC(=O)c3ccc(OC)cc3)CCCCCC2)CC1 [compound 67, 4-Methoxy-N-((1-(4-(propylsulfonyl)piperazin-1-yl)cycloheptyl)methyl) benzamide Hydrochloride]
16 | 1990 | CCCS(=O)(=O)N1CCN(C2(CNC(=O)c3ccc(Cl)cc3)CCCC2)CC1 [compound 73, 4-Chloro-N-((1-(4-(propylsulfonyl)piperazin-1-yl)cyclopentyl)methyl) benzamide Hydrochloride]
17 | 1820 | CCCS(=O)(=O)N1CCN(C2(CNC(=O)c3ccc(Cl)c(Cl)c3)CCCC2)CC1 [compound 76, 3,4-Dichloro-N-((1-(4-(propylsulfonyl)piperazin-1-yl)cyclopentyl)methyl) benzamide Hydrochloride]
18 | 2440 | CCCS(=O)(=O)N1CCN(C2(CNC(=O)c3c(N)cccc3Cl)CCC2)CC1 [compound 78, 2-Amino-6-chloro-N-((1-(4-(propylsulfonyl)piperazin-1-yl)cyclobutyl)methyl) benzamide Hydrochloride]
19 | 291 | CCCS(=O)(=O)N1CCN(C2(CNC(=O)c3ccccc3F)CCC(F)(F)CC2)CC1 [compound 131, N-((4,4-Difluoro-1-(4-(propylsulfonyl)piperazin-1-yl)cyclohexyl)methyl)-2-fluorobenzamide Hydrochloride]
20 | 70 | CCCS(=O)(=O)N1CCN(C2(CNC(=O)c3ccccc3C)CCC(F)(F)CC2)CC1 [compound 134, N-((4,4-Difluoro-1-(4-(propylsulfonyl)piperazin-1-yl)cyclohexyl)methyl)-2-methylbenzamide Hydrochloride]
21 | 195 | CCCS(=O)(=O)N1CCN(C2(CNC(=O)c3ccc(F)cc3F)CCC(F)(F)CC2)CC1 [compound 140, N-((4,4-Difluoro-1-(4-(propylsulfonyl)piperazin-1-yl)cyclohexyl)methyl)-2,4-difluorobenzamide Hydrochloride]
22 | 158 | CCCS(=O)(=O)N1CCN(C2(CNC(=O)c3ccccc3OC(F)F)CCC(F)(F)CC2)CC1 [compound 142, N-((4,4-Difluoro-1-(4-(propylsulfonyl)piperazin-1-yl)cyclohexyl)methyl)-2-(difluoromethoxy) benzamide Hydrochloride]
23 | 137 | CCCS(=O)(=O)N1CCN(C2(CNC(=O)c3ccc(Cl)cc3F)CCC(F)(F)CC2)CC1 [compound 143, 4-Chloro-N-((4,4-difluoro-l-(4-(propylsulfonyl)piperazin-1-yl)cyclohexyl)methyl)-2-fluorobenzamide Hydrochloride]
24 | 46 | CCCS(=O)(=O)N1CCN(C2(CNC(=O)c3c(F)cc(F)cc3F)CCC(F)(F)CC2)CC1 [compound 144, N-((4,4-Difluoro-1-(4-(propylsulfonyl)piperazin-1-yl)cyclohexyl)methyl)-2,4,6-trifluorobenzamide Hydrochloride]
25 | 52 | CCCS(=O)(=O)N1CCN(C2(CNC(=O)c3ccc(F)cc3C)CCC(F)(F)CC2)CC1 [compound 145, N-((4,4-Difluoro-1-(4-(propylsulfonyl)piperazin-1-yl)cyclohexyl)methyl)-4-fluoro-2-methylbenzamide Hydrochloride]

Reference: patent US9045445B2, “Glycine transporter-1 inhibitors, methods of making them, and uses thereof” (Albany Molecular Research, Inc., priority 2010, dated 2015)
